In US11642344B2, “Cholesteryl ester transfer protein (CETP) inhibitor and pharmaceutical compositions comprising said inhibitor for use in the treatment or prevention of cardiovascular diseases” (NewAmsterdam Pharma B.V., priority 2014, dated 2023):
Where two headings read alike, the source gives them in different places.

Assays:
HDL-C, LDL-C = details: cited from earlier work
[1] = cited from earlier work; for mineralocorticoid activity: data from phase 2 studies; for off-target effects (in words): clinical trials
CETP [2] = target: T1, CETP (Homo sapiens, UniProt P11597); assay: In vitro CETP assay: 3H-labeled CE transfer from HDL to VLDL/LDL in human plasma; format: biochemical; details: 24 h pre-incubation at 37° C.
T1 construct: from tissue; host or cells: plasma of Caucasian male subjects dosed with Compound A or placebo
T1 sequence (P11597 18-493): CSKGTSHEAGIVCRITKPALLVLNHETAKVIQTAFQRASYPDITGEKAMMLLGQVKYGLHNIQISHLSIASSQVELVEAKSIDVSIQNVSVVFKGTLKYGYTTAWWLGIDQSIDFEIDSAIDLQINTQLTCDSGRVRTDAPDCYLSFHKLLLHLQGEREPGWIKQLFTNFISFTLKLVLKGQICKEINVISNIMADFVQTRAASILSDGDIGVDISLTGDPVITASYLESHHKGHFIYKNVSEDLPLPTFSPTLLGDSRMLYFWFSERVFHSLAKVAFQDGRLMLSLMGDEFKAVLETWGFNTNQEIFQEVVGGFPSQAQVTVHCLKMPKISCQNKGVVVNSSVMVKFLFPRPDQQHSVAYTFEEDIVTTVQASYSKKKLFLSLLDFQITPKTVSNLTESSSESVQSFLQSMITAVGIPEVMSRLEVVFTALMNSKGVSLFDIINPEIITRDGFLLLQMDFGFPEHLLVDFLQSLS
Method: Human blood was obtained from healthy male volunteers using 0.1% EDTA as an anticoagulant, and centrifuged at 3,000 rpm for 15 minutes at 4° C. Human plasma was pooled, and then used for the preparation of ^3H-labeled HDL or stored at −80° C. for CETP assay until use. The ^3H-labeled HDL was prepared with human plasma as described by Glenn and Melton (Methods in enzymology. 263; 339-351, 1996). The specific gravity of plasma was measured by a hydrometer, and the density was adjusted to 1.125 g/mL by adding solid KBr. After centrifugation at 100,000 rpm for 4 hours at 12° C. (rotor: 100.4, Optima TLX, Beckman), d>1.125 g/mL fraction was dialyzed against 4 L of Tris-saline-EDTA buffer (TSE; 50 mmol/L Tris, 150 mmol/L NaCl, 2 mmol/L EDTA, pH7.4) for 18 hours at 4° C. [1,2-^3H(N)]-Cholesterol (37 MBq/mL) was added to the dialyzed plasma fraction at the amount of 2 μCi/mL. The tube was tightly sealed under N2 gas stream and incubated at 37° C. for 18 hours with gently stirring to allow esterification of radio-labeled cholesterol by endogenous LCAT. The incubated plasma fraction was adjusted to d=1.21 g/mL with solid KBr, and centrifuged at 100,000 rpm, 12° C. for 5 hours. ^3H-labeled HDL fraction was dialyzed against 2 L of TSE at 4° C. for 18 hours. The radioactivity of ^3H-labeled HDL was counted in a liquid scintillation counter. ^3H-labeled HDL was stored at 4° C. until use.
CETP activity was determined as the rate of ^3H-labeled CE transfer from donor HDL to acceptor VLDL/LDL. Human plasma (94 μL) was pre-incubated with compounds dissolved in DMSO (1 μL) 24 hours at 37° C., and then incubated for 4 hours at 4° C. or 37° C. with 5 μL of ^3H-labeled HDL. One hundred μL of phosphotungstate/MgCl2 reagent (Wako pure chemical) were added to precipitate apoB-containing lipoproteins. After centrifugation at 3,000 rpm for 10 minutes at room temperature, the radioactivity of the supernatant was counted in a liquid scintillation counter. […] The concentration achieving 50% inhibition of CETP activity (IC50) was estimated.

CETP [3] = assay: Ex vivo serum CETP activity after oral administration to hamsters; design: species or system Syrian Golden hamsters; details: 3 mg/kg oral, suspension in 0.5% CMC, serum 3 hours after administration
Method: Syrian Golden hamsters were used for the experiment after 1-week acclimatization. After an overnight fast, animals were orally given the compound suspension in 0.5% sodium carboxymethylcellulose in a volume of 10 mL/kg. Under deep anesthesia with ether, blood was collected from the abdominal aorta 3 hours after the administration. For preparation of serum, the collected blood was transferred to a plastic tube containing a clot activator, left still for 15 minutes at room temperature and centrifuged. Serum CETP activities were determined immediately.
Ninety-five μL serum were added to 5 μL of […] sodium phosphate buffered saline (pH 7.0) containing 1.5 mM 5,5′-dithio-bis(2-nitrobenzoic acid) in two 96-well V-bottom plates. One plate was incubated at 4° C. and the other was incubated at 37° C. After 18 hours of incubation, each sample was mixed with 100 μL of reagent for precipitation of apolipoprotein B-containing lipoproteins (phosphotungstate/MgCl2 reagent, Wako pure chemical), left still for 10 minutes at room temperature and centrifuged. Total cholesterol (TC) and free cholesterol (FC) in supernatant were measured using commercial kits (Cholesterol E-test wako, and Free Cholesterol E-test wako; Wako pure chemical). Cholesteryl ester (CE) was calculated by subtracting FC from TC. CETP activity was determined by the following formula: CETP activity=[CETP transfer]*/[CE value in 4° C. incubation sample] *CETP transfer=[CE value in 4° C. incubation sample]−[CE value in 37° C. incubation sample] (c) Results

[4] = 200 mg once daily, fasted healthy subjects
[5] = 500 mg once daily monotherapy in patients

## COc1cc(F)c(C(C)C)cc1-c1ccc(C(F)(F)F)cc1CN1C(=O)O[C@H](c2cc(C(F)(F)F)cc(C(F)(F)F)c2)[C@@H]1C [Anacetrapib, anacetrapib]
HDL-C, LDL-C; 150 mg once daily, patients
  decrease LDL-C: 40%
  increase HDL C: 139%
HDL-C, LDL-C; [4]
  decrease LDL-C: 36%
  increase HDL C: 97%
[1]
  mineralocorticoid activity: without mineralocorticoid activity

## CCC(CC)CC1(C(=O)Nc2ccccc2SC(=O)C(C)C)CCCCC1 [Dalcetrapib, dalcetrapib]
HDL-C, LDL-C; phase 2b clinical trials
  effects on LDL-C concentrations: minimal effects
  increase HDL-C: 30-40%
[1]
  off-target effects (in words): did not appear to exhibit the off-target effects of torcetrapib

## Cc1cc(C)c2c(c1)[C@@H](N(Cc1cc(C(F)(F)F)cc(C(F)(F)F)c1)c1nnn(C)n1)CCCN2C[C@H]1CC[C@H](C(=O)O)CC1 [Evacetrapib, evacetrapib]
HDL-C, LDL-C; [5]
  decrease LDL-C: 36%
  increase HDL-C: 129%
[1]
  mineralocorticoid activity: without mineralocorticoid activity

## CCOC(=O)N1c2ccc(C(F)(F)F)cc2[C@@H](N(Cc2cc(C(F)(F)F)cc(C(F)(F)F)c2)C(=O)OC)C[C@H]1CC [Torcetrapib, torcetrapib]
HDL-C, LDL-C; dosed at 60 mg, phase 3
  decrease LDL-C: 25%
  increase HDL-C: 72%
[1]
  off-target effects (in words): increased blood pressure, changes in electrolytes
[1]; in combination with atorvastatin, compared with atorvastatin alone
  cardiovascular events and death: unexpected increase in cardiovascular events and death

## CCOC(=O)N1c2ccc(C(F)(F)F)cc2C(N(Cc2cc(C(F)(F)F)cc(C(F)(F)F)c2)c2ncc(OCc3ccc(C(=O)O)cc3)cn2)CC1CC (stereo not drawn) [compound 1]
CETP [2]
  IC50: 0.21 µM
CETP [3]
  ex vivo (% inhibition) 3 mg/kg (CMC): 57.5%

## CCOC(=O)N1c2ccc(C(F)(F)F)cc2[C@@H](N(Cc2cc(C(F)(F)F)cc(C(F)(F)F)c2)c2ncc(OCc3cccc(C(=O)O)c3)cn2)C[C@H]1CC [compound 2]
CETP [2]
  IC50: 0.23 µM
CETP [3]
  ex vivo (% inhibition) 3 mg/kg (CMC): 38.4%

## CCOC(=O)N1c2ccc(C(F)(F)F)cc2C(N(Cc2cc(C(F)(F)F)cc(C(F)(F)F)c2)c2ncc(OCC(=O)NCC(=O)O)cn2)CC1CC (stereo not drawn) [compound 3]
CETP [2]
  IC50: 0.45 µM
CETP [3]
  ex vivo (% inhibition) 3 mg/kg (CMC): 5.4%

## CCOC(=O)N1c2ccc(C(F)(F)F)cc2C(N(Cc2cc(C(F)(F)F)cc(C(F)(F)F)c2)c2ncc(OCC(=O)N(C)CC(=O)O)cn2)CC1CC (stereo not drawn) [compound 4]
CETP [2]
  IC50: 0.79 µM
CETP [3]
  ex vivo (% inhibition) 3 mg/kg (CMC): 8.6%

## CCOC(=O)N1c2ccc(C(F)(F)F)cc2C(N(Cc2cc(C(F)(F)F)cc(C(F)(F)F)c2)c2ncc(OCC(=O)N3CCCC3C(=O)O)cn2)CC1CC (stereo not drawn) [compound 5]
CETP [2]
  IC50: 1.7 µM
CETP [3]
  ex vivo (% inhibition) 3 mg/kg (CMC): 6.2%

## CCOC(=O)N1c2ccc(C(F)(F)F)cc2C(N(Cc2cc(C(F)(F)F)cc(C(F)(F)F)c2)c2ncc(S(=O)(=O)CCCC(=O)O)cn2)CC1CC (stereo not drawn) [compound 6]
CETP [2]
  IC50: 0.22 µM
CETP [3]
  ex vivo (% inhibition) 3 mg/kg (CMC): 13.9%
